# Measured values from EPA's ToxValDB 9.5 (doi:10.2903/j.efsa.2008.116r).
# Legend:
# [1] = test system: Coturnix coturnix; conditions: reproduction developmental
# [2] = test system: Rattus norvegicus
# [3] = test system: Coturnix japonica; conditions: acute, oral, mortality
# [4] = test system: Daphnia magna; conditions: chronic/long-term; duration: 21 days; reproduction
# [5] = test system: Apis mellifera; conditions: acute; duration: 48 hours; dermal; mortality
# [6] = test system: Lepomis macrochirus; conditions: acute; duration: 96 hours; mortality
# [7] = test system: Tagia sp.; conditions: acute; duration: 14 days; mortality
# [8] = test system: Canidae; conditions: oral, Dog Other, clinical chemistry
# [9] = test system: Mus musculus; conditions: acute; oral; mortality
# [10] = test system: Oncorhynchus mykiss; conditions: chronic/long-term; duration: 21 days; growth
# [11] = test system: Aphidius rhopalosiphi; assay: LR50; higher = less toxic; conditions: not reported; mortality
# [12] = test system: Typhlodromus pyri; assay: LR50; higher = less toxic; conditions: not reported; mortality
compound,measurement,setting,value
COc1cc(OC)nc(NC(=O)NS(=O)(=O)N(C)S(C)(=O)=O)n1 [Amidosulfuron],NOEC,[1],1000 mg/kg-day
same,NOEC,"[2]; chronic, mortality",400 mg/kg-day
same,NOAEL,"[2]; reproduction developmental, body weight",22.5 mg/kg-day
same,NOEC,"[2]; reproduction developmental, organ weight",22.5 mg/kg-day
same,LC50,[3]; diet,> 1170 mg/kg-day
same,LD50,[3],> 2000 mg/kg-day
same,NOEC,[4],1 mg/L
same,LD50,[5],> 100 µg/piece
same,LC50,[6],> 100 mg/L
same,LC50,[7],> 1000 mg/kg
same,NOAEL,"[8]; chronic, duration: 52 weeks",144 mg/kg-day
same,NOAEL,"[8]; subchronic, duration: 3 months",144 mg/kg-day
same,LD50,[9],≥ 5000 mg/kg-day
same,NOEC,[10],6.41 mg/L
same,LR50,[11],> 45 g/ha
same,LR50,[12],> 45 g/ha
